Where “and” joins values, the source holds several entries; their conditions need not be identical. Identical values can stand only once. Counter-ions that a name gives are not always drawn.
Assay: rectal (body) temperature of mice measured with medicinal electrothermometer TREM-1
Type: in vivo, mice of the BALB line
Conditions: for body temperature: i.p.
Procedure: In all cases tests were carried out on mice of the BALB line of 3-4 month age. […] In the case of water-soluble compounds, aqueous solutions of the test compounds were injected intraperitoneally (i.p.), while water-insoluble compounds were introduced orally (p.o.).
Rectal temperature changes (absolute magnitues in ° C.) were measured using a medicinal electrothermometer TREM-1 (Table 1). The rate of oxygen consumption was monitored by measuring concentration of oxygen in a closed testing unit with optic-acoustic gas analyser MN 5130. The data on oxygen consumption are given in percents relative to the starting content of oxygen taken as 100%. (Table 2).
Rectal temperature of mice was followed in dynamics after 5, 15, 30, 60, 120, 180, 240, 300, and 360 minutes (Table 3). […] The same decrease in temperature at 190 mg/kg dosage was reached after 15 minutes; in 1.5 hours it reached 22-25° C. and maintained this level over the next 5 hours, that is 13-17° C. below the initial value. After one day, body temperature was restored to the value of 94-96% of initial.

c1ccc(C2=NN=C(N3CCOCC3)SC2)cc1 [Compound 1, 2-Morpholino-5-phenyl-6H-1,3,4-thiadiazine, hydrobromide]
body temperature (T) (10.0 mg/kg i.p., 0 min): 37.5 ± 0.2 °C
body temperature (T) (10.0 mg/kg i.p., 10 min): 37.8 ± 0.1 °C
body temperature (T) (10.0 mg/kg i.p., 20 min): 37.4 ± 0.2 °C
body temperature (T) (10.0 mg/kg i.p., 30 min): 37.3 °C
body temperature (T) (10.0 mg/kg i.p., 40 min): 37.5 ± 0.1 °C
body temperature (T) (10.0 mg/kg i.p., 60 min): 37.5 ± 0.1 °C
body temperature (T) (10.0 mg/kg i.p., 90 min): 37.4 ± 0.2 °C
body temperature (T) (10.0 mg/kg i.p., 120 min): 36.9 ± 0.1 °C
body temperature (T) (10.0 mg/kg i.p., 180 min): 36.9 ± 0.2 °C
body temperature (T) (10.0 mg/kg i.p., 210 min): 36.4 °C
body temperature (T) (10.0 mg/kg i.p., 240 min): 36.7 ± 0.2 °C
body temperature (T) (10.0 mg/kg i.p., 270 min): 36.7 ± 0.2 °C
body temperature (T) (10.0 mg/kg i.p., 300 min): 36.9 ± 0.1 °C
body temperature (T) (10.0 mg/kg i.p., 330 min): 36.8 ± 0.2 °C
body temperature (T) (10.0 mg/kg i.p., 390 min): 36.7 ± 0.2 °C
body temperature (T) (35.0 mg/kg i.p., 0 min): 37.7 ± 0.2 °C
body temperature (T) (35.0 mg/kg i.p., 10 min): 37.2 ± 0.2 °C
body temperature (T) (35.0 mg/kg i.p., 20 min): 36.6 ± 0.4 °C
body temperature (T) (35.0 mg/kg i.p., 30 min): 35.9 °C
body temperature (T) (35.0 mg/kg i.p., 40 min): 36.6 ± 0.1 °C
body temperature (T) (35.0 mg/kg i.p., 60 min): 37.0 ± 0.3 °C
body temperature (T) (35.0 mg/kg i.p., 90 min): 37.3 ± 0.1 °C
body temperature (T) (35.0 mg/kg i.p., 120 min): 37.1 ± 0.3 °C
body temperature (T) (35.0 mg/kg i.p., 180 min): 36.9 ± 0.2 °C
body temperature (T) (35.0 mg/kg i.p., 210 min): 36.6 ± 0.1 °C
body temperature (T) (35.0 mg/kg i.p., 240 min): 36.9 ± 0.4 °C
body temperature (T) (35.0 mg/kg i.p., 270 min): 36.8 ± 0.1 °C
body temperature (T) (35.0 mg/kg i.p., 300 min): 36.9 ± 0.1 °C
body temperature (T) (35.0 mg/kg i.p., 330 min): 37.2 ± 0.2 °C
body temperature (T) (35.0 mg/kg i.p., 390 min): 37.1 ± 0.1 °C
body temperature (T) (70.0 mg/kg i.p., 0 min): 37.5 ± 0.2 °C
body temperature (T) (70.0 mg/kg i.p., 10 min): 36.2 ± 0.3 °C
body temperature (T) (70.0 mg/kg i.p., 20 min): 35.4 ± 0.5 °C
body temperature (T) (70.0 mg/kg i.p., 30 min): 34.5 °C
body temperature (T) (70.0 mg/kg i.p., 40 min): 35.0 ± 0.9 °C
body temperature (T) (70.0 mg/kg i.p., 60 min): 35.6 ± 0.6 °C
body temperature (T) (70.0 mg/kg i.p., 90 min): 36.1 ± 0.2 °C
body temperature (T) (70.0 mg/kg i.p., 120 min): 37.0 ± 0.2 °C
body temperature (T) (70.0 mg/kg i.p., 180 min): 36.7 ± 0.6 °C
body temperature (T) (70.0 mg/kg i.p., 210 min): 36.9 °C
body temperature (T) (70.0 mg/kg i.p., 240 min): 37.0 ± 0.1 °C
body temperature (T) (70.0 mg/kg i.p., 270 min): 36.6 ± 0.2 °C
body temperature (T) (70.0 mg/kg i.p., 300 min): 37.0 ± 0.1 °C
body temperature (T) (70.0 mg/kg i.p., 330 min): 37.2 ± 0.1 °C
body temperature (T) (70.0 mg/kg i.p., 390 min): 37.1 ± 0.1 °C
time of maximum drop of body temperature (140 mg/kg i.p.): 40 to 60 min
body temperature (T) (140.0 mg/kg i.p., 0 min): 37.9 ± 0.1 °C
body temperature (T) (140.0 mg/kg i.p., 10 min): 34.5 ± 0.2 °C
body temperature (T) (140.0 mg/kg i.p., 20 min): 32.6 ± 0.4 °C
body temperature (T) (140.0 mg/kg i.p., 30 min): 30.8 °C
body temperature (T) (140.0 mg/kg i.p., 40 min): 30.2 ± 0.1 °C
body temperature (T) (140.0 mg/kg i.p., 60 min): 30.0 ± 0.1 °C
body temperature (T) (140.0 mg/kg i.p., 90 min): 31.5 ± 0.9 °C
body temperature (T) (140.0 mg/kg i.p., 120 min): 33.6 ± 0.7 °C
body temperature (T) (140.0 mg/kg i.p., 180 min): 35.2 ± 0.5 °C
body temperature (T) (140.0 mg/kg i.p., 210 min): 36.1 °C
body temperature (T) (140.0 mg/kg i.p., 240 min): 36.5 ± 0.2 °C
body temperature (T) (140.0 mg/kg i.p., 270 min): 36.6 ± 0.2 °C
body temperature (T) (140.0 mg/kg i.p., 300 min): 36.9 ± 0.1 °C
body temperature (T) (140.0 mg/kg i.p., 330 min): 37.6 ± 0.2 °C
body temperature (T) (140.0 mg/kg i.p., 390 min): 37.2 ± 0.2 °C
maximum drop of body temperature (140 mg/kg i.p., after 40-60 minutes): 7-8 °C
body temperature (T) (190 mg/kg (1/2 LD16) i.p., 5 min): 34.9 ± 0.0 °C
body temperature (T) (190 mg/kg (1/2 LD16) i.p., 15 min): 30.8 ± 0.2 °C
time to reach the same decrease in temperature (7-8° C.) (190 mg/kg i.p.): 15 min
body temperature (T) (190.0 mg/kg i.p., 0 min): 39.2 ± 0.1 °C
body temperature (T) (190.0 mg/kg i.p., 10 min): 34.9 ± 0.0 °C
body temperature (T) (190.0 mg/kg i.p., 20 min): 30.8 ± 0.2 °C
body temperature (T) (190.0 mg/kg i.p., 30 min, hydrobromide): 26.9 ± 0.4 °C and 26.9 °C
body temperature (T) (190.0 mg/kg i.p., 40 min): 25.9 ± 0.3 °C
body temperature (T) (190.0 mg/kg i.p., 60 min): 23.5 ± 0.2 °C
body temperature (T) (190.0 mg/kg i.p., 90 min): 21.4 ± 0.2 °C
body temperature (T) (190.0 mg/kg i.p., 120 min): 23.0 ± 0.8 °C
body temperature (T) (190.0 mg/kg i.p., 180 min): 20.9 ± 0.1 °C
body temperature (T) (190.0 mg/kg i.p., 210 min): 21.4 °C
body temperature (T) (190.0 mg/kg i.p., 240 min): 21.1 ± 0.1 °C
body temperature (T) (190.0 mg/kg i.p., 270 min): 20.8 ± 0.3 °C
body temperature (T) (190.0 mg/kg i.p., 300 min, hydrobromide): 20.2 ± 0.0 °C and 20.2 ± 0.2 °C
body temperature (T) (190.0 mg/kg i.p., 330 min): 19.8 ± 0.2 °C
body temperature (T) (190.0 mg/kg i.p., 390 min): 19.8 ± 0.2 °C
body temperature (T) (190.0 mg/kg i.p., 1140 min): 36.9 °C
body temperature (T) (190.0 mg/kg i.p., 1620 min): 37.9 ± 0.4 °C
body temperature (T) (190.0 mg/kg i.p., 1980 min): 36.9 ± 0.3 °C
time over which the temperature level was maintained (190 mg/kg i.p., after reaching 22-25° C. in 1.5 hours): 5 h
body temperature below the initial value (190 mg/kg i.p., from 1.5 hours over the next 5 hours): 13-17 °C
body temperature level reached (190 mg/kg i.p., in 1.5 hours): 22-25 °C
body temperature (T) (279.0 mg/kg i.p., 0 min): 38.9 ± 0.6 °C
body temperature (T) (279.0 mg/kg i.p., 10 min): 35.8 ± 0.1 °C
body temperature (T) (279.0 mg/kg i.p., 20 min): 30.2 ± 0.1 °C
body temperature (T) (279.0 mg/kg i.p., 30 min): 27.1 °C
body temperature (T) (279.0 mg/kg i.p., 40 min): 24.7 ± 0.2 °C
body temperature (T) (279.0 mg/kg i.p., 60 min): 21.0 ± 0.1 °C
body temperature (T) (279.0 mg/kg i.p., 90 min): 20.0 ± 0.1 °C
body temperature (T) (279.0 mg/kg i.p., 120 min): 21.0 ± 0.3 °C
body temperature (T) (279.0 mg/kg i.p., 180 min): 21.2 ± 0.2 °C
body temperature (T) (279.0 mg/kg i.p., 210 min): 21.2 °C
body temperature (T) (279.0 mg/kg i.p., 240 min): 20.8 ± 0.1 °C
body temperature (T) (279.0 mg/kg i.p., 270 min): 21.5 ± 0.1 °C
body temperature (T) (279.0 mg/kg i.p., 300 min): 21.3 ± 0.3 °C
body temperature (T) (279.0 mg/kg i.p., 330 min): 22.5 ± 0.3 °C
body temperature (T) (279.0 mg/kg i.p., 390 min): 19.4 ± 0.3 °C
body temperature (T) (279.0 mg/kg i.p., 1140 min): 20.8 °C
body temperature (T) (279.0 mg/kg i.p., 1620 min): 22.6 ± 0.9 °C
body temperature (T) (279.0 mg/kg i.p., 1980 min): 21.2 ± 0.3 °C
body temperature (T) (365.0 mg/kg i.p., 0 min): 39.6 ± 0.1 °C
body temperature (T) (365.0 mg/kg i.p., 10 min): 35.4 ± 0.2 °C
body temperature (T) (365.0 mg/kg i.p., 20 min): 30.1 ± 0.2 °C
body temperature (T) (365.0 mg/kg i.p., 30 min): 27.2 °C
body temperature (T) (365.0 mg/kg i.p., 40 min): 25.5 ± 0.2 °C
body temperature (T) (365.0 mg/kg i.p., 60 min): 23.3 ± 0.3 °C
body temperature (T) (365.0 mg/kg i.p., 90 min): 21.5 ± 0.2 °C
body temperature (T) (365.0 mg/kg i.p., 120 min): 20.9 ± 0.2 °C
body temperature (T) (365.0 mg/kg i.p., 180 min): 21.4 ± 0.1 °C
body temperature (T) (365.0 mg/kg i.p., 210 min): 21.2 °C
body temperature (T) (365.0 mg/kg i.p., 240 min): 21.1 ± 0.0 °C
body temperature (T) (365.0 mg/kg i.p., 270 min): 21.4 ± 0.7 °C
body temperature restored, % of initial (after one day, 190 mg/kg i.p.): 94-96%
body temperature (T) (dose 36.5 mg/kg (1.06 mM/kg) i.p., 300 min): 22.1 ± 0.0 °C
body temperature (T) (dose 36.5 mg/kg (1.06 mM/kg) i.p., 330 min): 21.5 ± 0.1 °C
body temperature (T) (dose 36.5 mg/kg (1.06 mM/kg) i.p., 390 min): 20.0 ± 0.2 °C
body temperature (T) (dose 36.5 mg/kg (1.06 mM/kg) i.p., 1140 min): 20.8 °C
body temperature (T) (dose 36.5 mg/kg (1.06 mM/kg) i.p., 1620 min): 21.6 ± 0.1 °C
body temperature (T) (dose 36.5 mg/kg (1.06 mM/kg) i.p., 1980 min): 22.1 ± 0.2 °C
body temperature (0 min, mg/kg: cpd 1 190.0, cpd 2 178.0, cpd 5 190.0, cpd 6 160.0): 39.2 °C
body temperature (30 min, mg/kg: cpd 1 190.0, cpd 2 178.0, cpd 5 190.0, cpd 6 160.0): 26.9 °C
body temperature (60 min, mg/kg: cpd 1 190.0, cpd 2 178.0, cpd 5 190.0, cpd 6 160.0): 23.5 °C
body temperature (90 min, mg/kg: cpd 1 190.0, cpd 2 178.0, cpd 6 160.0): 21.4 °C
body temperature (120 min, mg/kg: cpd 1 190.0, cpd 2 178.0, cpd 5 190.0, cpd 6 160.0): 23.0 °C
body temperature (180 min, mg/kg: cpd 1 190.0, cpd 2 178.0, cpd 5 190.0, cpd 6 160.0): 20.9 °C
body temperature (240 min, mg/kg: cpd 1 190.0, cpd 2 178.0, cpd 5 190.0, cpd 6 160.0): 21.1 °C
body temperature (300 min, mg/kg: cpd 1 190.0, cpd 2 178.0, cpd 6 160.0): 20.2 °C

Source: US6313111A, “Substituted 6H-1,3,4-thiadiazine-2-amines, the use thereof as anaesthetising, cardiovascular and hypometabolic agents, and pharmaceutical composition containing them” (priority 1998, dated 2001)
